ChEMBL document CHEMBL4627342, “Novel pyridone EP4 agonists featuring allylic alcohol ω-chains” (Bioorg Med Chem Lett, 2020)

Experiments:
Assay type in all cases: functional, cell-based
[1] = target: T1, Prostaglandin E2 receptor EP3 subtype (Homo sapiens, UniProt P43115); test: Agonist activity at human EP3 receptor expressed in HEK293 cells by calcium-5 dye based FLIPR assay
T1 sequence (P43115 whole entry): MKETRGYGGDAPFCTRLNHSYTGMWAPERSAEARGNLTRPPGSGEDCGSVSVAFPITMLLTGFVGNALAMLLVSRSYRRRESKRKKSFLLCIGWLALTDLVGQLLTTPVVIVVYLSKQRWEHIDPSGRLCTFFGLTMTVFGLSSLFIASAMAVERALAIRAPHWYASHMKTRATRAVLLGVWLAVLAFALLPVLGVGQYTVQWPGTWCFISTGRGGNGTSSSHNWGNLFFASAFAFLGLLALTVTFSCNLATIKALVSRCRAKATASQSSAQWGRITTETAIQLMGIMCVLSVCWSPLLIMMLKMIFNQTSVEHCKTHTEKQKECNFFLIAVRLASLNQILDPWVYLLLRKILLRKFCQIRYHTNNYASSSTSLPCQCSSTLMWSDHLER

[2] = target: Prostaglandin E2 receptor EP2 subtype (Homo sapiens, UniProt P43116); test: Agonist activity at human EP2 receptor expressed in HEK293 cells by calcium-5 dye based FLIPR assay
[3] = target: T2, Prostaglandin E2 receptor EP4 subtype (Homo sapiens, UniProt P35408); test: Agonist activity at human EP4 receptor expressed in HEK293 cells by calcium-5 dye based FLIPR assay
[4] = target: T3, Prostaglandin E2 receptor EP1 subtype (Homo sapiens, UniProt P34995); test: Agonist activity at human EP1 receptor expressed in HEK293 cells by calcium-5 dye based FLIPR assay
T3 sequence (P34995 whole entry): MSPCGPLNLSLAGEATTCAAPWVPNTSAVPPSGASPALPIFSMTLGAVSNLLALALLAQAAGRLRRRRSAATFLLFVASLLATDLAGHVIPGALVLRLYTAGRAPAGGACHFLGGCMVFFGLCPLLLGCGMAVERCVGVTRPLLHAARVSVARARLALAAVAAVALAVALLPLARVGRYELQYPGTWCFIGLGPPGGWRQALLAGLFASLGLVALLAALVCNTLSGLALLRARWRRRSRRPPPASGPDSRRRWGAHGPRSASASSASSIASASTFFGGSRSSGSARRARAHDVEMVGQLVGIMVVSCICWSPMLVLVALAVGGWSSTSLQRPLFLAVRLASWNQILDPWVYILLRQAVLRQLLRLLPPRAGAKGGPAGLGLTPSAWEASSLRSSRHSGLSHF

[5] = target: T2, Prostaglandin E2 receptor EP4 subtype; test: Agonist activity at human EP4 receptor expressed in HEK293 cells by calcium-5 dye based FLIPR assay relative to control

Sequence of Prostaglandin E2 receptor EP2 subtype (P43116 whole entry): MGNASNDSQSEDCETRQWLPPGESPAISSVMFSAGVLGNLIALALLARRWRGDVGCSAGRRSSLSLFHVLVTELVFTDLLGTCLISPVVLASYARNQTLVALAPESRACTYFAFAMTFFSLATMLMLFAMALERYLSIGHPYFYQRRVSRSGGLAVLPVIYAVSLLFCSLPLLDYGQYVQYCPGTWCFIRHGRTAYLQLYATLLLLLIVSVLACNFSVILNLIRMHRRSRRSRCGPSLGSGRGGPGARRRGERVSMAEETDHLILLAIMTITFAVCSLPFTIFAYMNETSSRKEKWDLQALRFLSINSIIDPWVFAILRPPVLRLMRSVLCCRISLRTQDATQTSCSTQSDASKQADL
T2 sequence (P35408 whole entry): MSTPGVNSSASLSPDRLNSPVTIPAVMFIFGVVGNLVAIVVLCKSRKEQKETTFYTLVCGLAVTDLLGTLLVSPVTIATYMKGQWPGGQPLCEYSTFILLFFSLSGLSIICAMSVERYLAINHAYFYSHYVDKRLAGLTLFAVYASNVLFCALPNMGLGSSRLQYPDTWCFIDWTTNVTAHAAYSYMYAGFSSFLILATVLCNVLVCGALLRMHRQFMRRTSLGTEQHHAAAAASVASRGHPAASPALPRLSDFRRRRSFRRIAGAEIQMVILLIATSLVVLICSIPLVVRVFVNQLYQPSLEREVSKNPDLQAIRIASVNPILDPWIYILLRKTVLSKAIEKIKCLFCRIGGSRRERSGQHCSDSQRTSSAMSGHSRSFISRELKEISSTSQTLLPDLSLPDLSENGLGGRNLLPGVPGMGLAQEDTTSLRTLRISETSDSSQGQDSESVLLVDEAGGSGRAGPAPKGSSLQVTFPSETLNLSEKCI

| SMILES | EC50 [1] [µM] | EC50 [2] [µM] | EC50 [3] [µM] | EC50 [4] [µM] | Emax [5] [%] |
| --- | --- | --- | --- | --- | --- |
| CCCCCC(O)/C=C/c1c(Cl)cc(Cl)c(=O)n1CCc1ccc(C(=O)O)cc1 (racemic) [listing 1 of 2 here] | > 10 | > 10 | 0.007 | > 10 |  |
| CCCCCC(O)/C=C/c1c(Cl)cc(Cl)c(=O)n1CCc1ccc(C(=O)O)cc1 (single isomer, unassigned; ent-9) [listing 1 of 2 here] |  |  |  |  | 136 |
| CCCCCC(O)CCc1cccc(=O)n1CCCCCCC(=O)O (centres undefined) | 2.7 | > 10 | 0.55 | 2.35 | 103 |
| CCCCCC(O)/C=C/c1c(Cl)cc(Cl)c(=O)n1CCc1ccc(C(=O)O)cc1 (single isomer, unassigned; ent-9) [listing 2 of 2 here] |  |  | 0.06 |  |  |
| CCCCCC(O)/C=C/c1c(Cl)cc(Cl)c(=O)n1CCCCCCC(=O)O (centres undefined) | > 10 | > 10 | 0.16 | > 10 | 123 |
| CCCCCC(C)(O)/C=C/c1c(Cl)cc(Cl)c(=O)n1CCc1ccc(C(=O)O)cc1 (centres undefined) | > 10 | 4.7 | 0.029 | > 10 | 139 |
| CCCCCC(O)/C=C/c1c(Cl)cc(Cl)c(=O)n1CCc1ccc(C(=O)O)cc1 (racemic) [listing 2 of 2 here] |  |  |  |  | 129 |
| CCCCCC(O)/C=C/c1c(Cl)cc(Cl)c(=O)n1CCc1ccc(C(=O)O)cc1 (stereo in doubt; 9) [listing 1 of 2 here] |  |  | 0.013 |  |  |
| CCCCCC(O)CCc1c(Cl)cc(Cl)c(=O)n1CCc1ccc(C(=O)O)cc1 (centres undefined) | > 10 | 1.5 | 0.0049 | > 10 | 138 |
| CCCCCC(O)/C=C/c1c(Br)cc(Br)c(=O)n1CCCCCCC(=O)O (centres undefined) | > 10 | > 10 | 0.36 | > 10 | 99 |
| CCCCCC(O)/C=C/c1c(Cl)cc(Cl)c(=O)n1CCc1ccc(C(=O)O)cc1 (stereo in doubt; 9) [listing 2 of 2 here] |  |  |  |  | 146 |
